Reference: US20220296535A1, “Antibacterial Dosage Regime Using Cannabinoids” (Botanix Pharmaceuticals Limited, priority 2019, published 2022)
In brackets after ≈: the same amount, converted by molar mass. Several values for one entry are separate records, joined by “and”; a condition that tells them apart may be missing. Equal entries are not always repeated.

Key:
Format in all cases: cell-based
[1] = test system: Staphylococcus epidermidis ATCC 12228; test: Expanded panel MIC micro-broth dilution; conditions: CaMHB
Description: (§1) The collaborator supplied sample as dry material. Angela Kavanagh prepared a stock solution at 10 mg/mL in neat DMSO. The highest concentration tested in the assay was 64 μg/mL for bacteria and 128 μg/mL for fungi. 2% DMSO was the final concentration using 1/20 dilution to achieve these concentrations.
(§2) The compound was serially diluted in Cation-adjusted Mueller Hinton Broth (CaMHB; BD, Cat. No. 212322) two-fold across the wells of polystyrene (PS) 96-well plates (Corning; Cat. No. 3370), plated in duplicate. All plates had flat bottom wells and were covered with low-evaporation lids.
(§3) Bacteria were cultured in CaMHB at 37° C. overnight, then diluted 40-fold and incubated at 37° C. for a further 2-3 h. The resultant mid-log phase cultures were diluted in CaMHB and added to each well of the compound-containing 96-well plates to give a final cell density of 5×10^5 CFU/mL, and a final compound concentration range of 0.03-64 μg/mL. The plates were covered and incubated at 37° C. for 20 h.
(§4) Inhibition of bacterial growth was determined visually, where the MIC was recorded as the lowest compound concentration with no visible growth.

[2] = test system: Streptococcus pneumoniae ATCC 700677; test: Expanded panel MIC micro-broth dilution; conditions: ATCC700677, CaMHB, read-out: Cannabidiol MIC (Batch 1)
Description: as §1, §2, §3, §4

[3] = test system: Staphylococcus aureus ATCC 29213; test: Expanded panel MIC micro-broth dilution; conditions: CaMHB
Description: as §1, §2, §3, §4

[4] = test system: Staphylococcus warneri Clinical isolate; test: Expanded panel MIC micro-broth dilution; conditions: CaMHB
Description: as §1, §2, §3, §4

[5] = test system: Staphylococcus aureus ATCC 43300; test: Expanded panel MIC micro-broth dilution; conditions: ATCC43300, CaMHB, read-out: Cannabidiol MIC (Batch 1)
Description: as §1, §2, §3, §4

[6] = test system: Streptococcus pyogenes ATCC 12344; test: Expanded panel MIC micro-broth dilution; conditions: ATCC12344, CaMHB, read-out: Cannabidiol MIC (Batch 1)
Description: as §1, §2, §3, §4

[7] = test system: Staphylococcus epidermidis NRS 60; test: Expanded panel MIC micro-broth dilution; conditions: CaMHB
Description: as §1, §2, §3, §4

[8] = test system: Staphylococcus warneri ATCC 27836; test: Expanded panel MIC micro-broth dilution; conditions: CaMHB
Description: as §1, §2, §3, §4

[9] = test system: Enterococcus faecium ATCC 35667; test: Expanded panel MIC micro-broth dilution; conditions: CaMHB
Description: as §1, §2, §3, §4

[10] = test system: Staphylococcus aureus ATCC 700699, NRS 1; test: Expanded panel MIC micro-broth dilution; conditions: CaMHB, read-out: Cannabidiol MIC (Batch 1)
Description: as §1, §2, §3, §4

[11] = test system: Bacillus cereus ATCC 11778; test: Expanded panel MIC micro-broth dilution; conditions: CaMHB
Description: as §1, §2, §3, §4

[12] = test system: Bacillus subtilis ATCC 6633; test: Expanded panel MIC micro-broth dilution; conditions: CaMHB
Description: as §1, §2, §3, §4

Kocuria rosea ATCC 31251 = test: Expanded panel MIC micro-broth dilution; conditions: CaMHB
Description: as §1, §2, §3, §4

[13] = test system: Staphylococcus aureus ATCC 33591; test: Expanded panel MIC micro-broth dilution; conditions: CaMHB
Description: as §1, §2, §3, §4

[14] = test system: Staphylococcus capitis ATCC 27840; test: Expanded panel MIC micro-broth dilution; conditions: CaMHB
Description: as §1, §2, §3, §4

[15] = test system: Staphylococcus aureus ATCC 25923; test: Expanded panel MIC micro-broth dilution; conditions: CaMHB
Description: as §1, §2, §3, §4

[16] = test system: Staphylococcus aureus NARSA, VRS1; test: Expanded panel MIC micro-broth dilution; conditions: CaMHB
Description: as §1, §2, §3, §4

[17] = test system: Enterococcus faecalis ATCC 29212; test: Expanded panel MIC micro-broth dilution; conditions: ATCC29212, CaMHB, read-out: Cannabidiol MIC (Batch 1)
Description: as §1, §2, §3, §4

[18] = test system: Staphylococcus epidermidis ATCC 14990; test: Expanded panel MIC micro-broth dilution; conditions: CaMHB
Description: as §1, §2, §3, §4

[19] = test system: Bacillus megaterium ATCC 13632; test: Expanded panel MIC micro-broth dilution; conditions: CaMHB
Description: as §1, §2, §3, §4

[20] = test system: Streptococcus pneumoniae ATCC 33400; test: Expanded panel MIC micro-broth dilution; conditions: CaMHB
Description: as §1, §2, §3, §4

[21] = test system: Staphylococcus aureus ATCC 43300; test: Broth MIC (Example 1); conditions: Staphylococcus aureus
Description: The collaborator supplied sample as dry material. A stock solution at 10 mg/mL in neat DMSO (11.2 mg in 1.12 mL of DMSO) was prepared. The highest concentration tested in the assay was 128 μg/mL and 2% DMSO as a final concentration using 1/20 dilution to achieve these concentrations.

C=C(C)C1CCC(C)=CC1c1c(O)cc(CCCCC)cc1O (stereo not shown) [Cannabidiol, 2-[3-methyl-6-(1-methylethenyl)-2-cyclohexen-1-yl]-5-pentyl-1,3-benzenediol]
Cannabidiol MIC (Batch 1) ([1]; Staphylococcus epidermidis ATCC 12228): 2 µg/mL | MIC ([1]; Staphylococcus epidermidis, ATCC12228, Staphylococcus epidermidis ATCC 12228, read-out: Cannabidiol MIC (Batch 1)): 1 µg/mL (≈ 3.18 µM) | MIC [2]: 4 µg/mL (≈ 12.7 µM) | Cannabidiol MIC (Batch 1) ([3]; Staphylococcus aureus ATCC 29213): 2 µg/mL | MIC ([3]; Staphylococcus aureus, ATCC29213, Staphylococcus aureus ATCC 29213, read-out: Cannabidiol MIC (Batch 1)): 1 µg/mL (≈ 3.18 µM) | Cannabidiol MIC (Batch 1) [4]: 4 µg/mL | MIC ([4]; Staphylococcus warneri, read-out: Cannabidiol MIC (Batch 1)): 2 µg/mL (≈ 6.36 µM) | MIC [5]: 1 µg/mL (≈ 3.18 µM) | MIC [6]: 1 µg/mL (≈ 3.18 µM) | Cannabidiol MIC (Batch 1) ([7]; Staphylococcus epidermidis NRS 60): 4 µg/mL and 8 µg/mL | MIC ([7]; Staphylococcus epidermidis, NRS60, Staphylococcus epidermidis NRS 60, read-out: Cannabidiol MIC (Batch 1)): 4 to 8 µg/mL (≈ 12.7 to 25.4 µM) | Cannabidiol MIC (Batch 1) ([8]; Staphylococcus warneri ATCC 27836): 4 µg/mL | MIC ([8]; Staphylococcus warneri, ATCC27836, Staphylococcus warneri ATCC 27836, read-out: Cannabidiol MIC (Batch 1)): 2 µg/mL (≈ 6.36 µM) | Cannabidiol MIC (Batch 1) ([9]; Enterococcus faecium ATCC 35667): 1 µg/mL | MIC ([9]; Enterococcus faecium, ATCC35667, Enterococcus faecium ATCC 35667, read-out: Cannabidiol MIC (Batch 1)): 0.5 µg/mL (≈ 1.59 µM) | MIC [10]: 4 µg/mL (≈ 12.7 µM) | Cannabidiol MIC (Batch 1) ([11]; Bacillus cereus ATCC 11778): 2 µg/mL | MIC ([11]; Bacillus cereus, ATCC11778, Bacillus cereus ATCC 11778, read-out: Cannabidiol MIC (Batch 1)): 1 µg/mL (≈ 3.18 µM) | Cannabidiol MIC (Batch 1) ([12]; Bacillus subtilis ATCC 6633): 2 µg/mL | MIC ([12]; Bacillus subtilis, ATCC6633, Bacillus subtilis ATCC 6633, read-out: Cannabidiol MIC (Batch 1)): 1 µg/mL (≈ 3.18 µM) | Cannabidiol MIC (Batch 1) (Kocuria rosea ATCC 31251; Kocuria rosea ATCC 31251): 2 µg/mL | MIC (Kocuria rosea ATCC 31251; Kocuria rosea, ATCC31251, Kocuria rosea ATCC 31251, read-out: Cannabidiol MIC (Batch 1)): 1 µg/mL (≈ 3.18 µM) | Cannabidiol MIC (Batch 1) ([13]; Staphylococcus aureus ATCC 33591): 2 µg/mL | MIC ([13]; Staphylococcus aureus, ATCC33591, Staphylococcus aureus ATCC 33591, read-out: Cannabidiol MIC (Batch 1)): 1 µg/mL (≈ 3.18 µM) | Cannabidiol MIC (Batch 1) ([14]; Staphylococcus capitis ATCC 27840): 2 µg/mL | MIC ([14]; Staphylococcus capitis, ATCC27840, Staphylococcus capitis ATCC 27840, read-out: Cannabidiol MIC (Batch 1)): 1 µg/mL (≈ 3.18 µM) | Cannabidiol MIC (Batch 1) ([15]; Staphylococcus aureus ATCC 25923): 2 µg/mL | MIC ([15]; Staphylococcus aureus, ATCC25923, Staphylococcus aureus ATCC 25923, read-out: Cannabidiol MIC (Batch 1)): 1 µg/mL (≈ 3.18 µM) | Cannabidiol MIC (Batch 1) [16]: 2 µg/mL | MIC ([16]; Staphylococcus aureus, read-out: Cannabidiol MIC (Batch 1)): 1 µg/mL (≈ 3.18 µM) | MIC [17]: 2 µg/mL (≈ 6.36 µM) | Cannabidiol MIC (Batch 1) ([18]; Staphylococcus epidermidis ATCC 14990): 2 µg/mL | MIC ([18]; Staphylococcus epidermidis, ATCC14990, Staphylococcus epidermidis ATCC 14990, read-out: Cannabidiol MIC (Batch 1)): 1 µg/mL (≈ 3.18 µM) | Cannabidiol MIC (Batch 1) ([19]; Bacillus megaterium ATCC 13632): 2 µg/mL | MIC ([19]; Priestia megaterium, ATCC13632, Bacillus megaterium ATCC 13632, read-out: Cannabidiol MIC (Batch 1)): 1 µg/mL (≈ 3.18 µM) | Cannabidiol MIC (Batch 1) ([20]; Streptococcus pneumoniae ATCC 33400): 2 µg/mL | MIC ([20]; Streptococcus pneumoniae, ATCC33400, Streptococcus pneumoniae ATCC 33400, read-out: Cannabidiol MIC (Batch 1)): 1 µg/mL (≈ 3.18 µM) | MIC ([21]; ATCC43300, CAMHB, read-out: Broth MIC): 1 µg/mL (≈ 3.18 µM) | MIC ([21]; ATCC43300, TSB + 5% Glucose, read-out: Broth MIC): 0.5 µg/mL | MIC ([21]; ATCC 43300 / MRSA, same strain of MRSA, read-out: standard vegetative cell MIC): 0.5 to 1 µg/mL (≈ 1.59 to 3.18 µM)
